One assay deals with T1, human GPBAR1 receptor (Homo sapiens, UniProt Q8TDU6).
T1 construct: expressed in transfected cells
T1 sequence (Q8TDU6 1-330): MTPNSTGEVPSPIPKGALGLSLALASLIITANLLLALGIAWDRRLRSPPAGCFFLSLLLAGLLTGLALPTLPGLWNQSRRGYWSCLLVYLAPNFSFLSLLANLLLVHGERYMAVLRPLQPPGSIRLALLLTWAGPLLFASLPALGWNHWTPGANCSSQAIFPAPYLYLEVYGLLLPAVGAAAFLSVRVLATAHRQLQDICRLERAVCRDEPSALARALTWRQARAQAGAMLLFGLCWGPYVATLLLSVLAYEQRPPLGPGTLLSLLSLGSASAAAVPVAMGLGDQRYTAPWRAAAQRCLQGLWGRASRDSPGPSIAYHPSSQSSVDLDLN
Put plainly: functional cAMP assay in CHO-dhfr(minus) cells expressing human GPBAR1 receptors. In kind it is cell-based. The conditions noted are these: functional cAMP assay, 30 min at 30° C., read-out: human EC50. The essentials:
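Agonist cAMP read-out: stable GPBAR1 CHO-dhfr− clone, 30 min compound exposure at 30° C following 30 min IBMX (1 mM) preincubation in Krebs Ringer bicarbonate. Time-resolved energy-transfer detection gives EC50; parental CHO cells serve as counter-screen.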
Turning to `Cc1cc(/C(C[C@H](c2ccc(C(=O)NCCO)cc2)c2ccccc2C)=N/O)ccn1` [Example 273, N-(2-Hydroxy-ethyl)-4-[(R)-3-[(E)-hydroxyimino]-3-(2-methyl-pyridin-4-yl)-1-o-tolyl-propyl]-benzamide], the EC50 turned out to be 31 nM.

The assay is the same for the next values; noted with them: human EC50, functional cAMP assay, 30 min at 30° C.
Consider `Cc1cc(/C(C[C@H](c2ccc(-c3nnc(C4CC4)o3)cc2)c2ccccc2C)=N/O)ccn1` [Example 418, ((−), E)-3-(4-(5-Cyclopropyl-1,3,4-oxadiazol-2-yl)phenyl)-1-(2-methylpyridin-4-yl)-3-o-tolylpropan-1-one oxime], for which the EC50 is 4 nM. Still for that read-out and setting: then `Cc1cc(/C(CC(c2cccc(-c3ccc(C(=O)O)cc3)c2)c2ccccc2C)=N/O)ccn1` (centres unmarked) [Example 103, (E)-3′-[3-[Hydroxyimino]-3-(2-methyl-pyridin-4-yl)-1-o-tolyl-propyl]-biphenyl-4-carboxylic acid], with 589 nM.

In turn, `Cc1cc(/C(C[C@H](c2ccc(-c3cn(C)nn3)cc2)c2ccccc2C)=N/O)ccn1` [Example 424, (−)-1-(2-Methyl-pyridin-4-yl)-3-[4-(1-methyl-1H-[1,2,3]triazol-4-yl)-phenyl]-3-o-tolyl-propan-1-one oxime] gave an EC50 of 1 nM. Take `Cc1cc(/C(CC(c2ccc(C(=O)NCCO)cc2)c2ccc(F)cc2F)=N/O)ccn1` (centres unmarked) [Example 433, 4-[1-(2,4-Difluoro-phenyl)-3-[(E)-hydroxyimino]-3-(2-methyl-pyridin-4-yl)-propyl]-N-(2-hydroxy-ethyl)-benzamide]: the EC50 came out at 55 nM.

Compound `Cc1cc(/C(C[C@@H](c2ccc(C(=O)N(C)C)cc2)c2ccc(Cl)cc2C)=N/O)ccn1` [Example 283, 4-[(S)-1-(4-Chloro-2-methyl-phenyl)-3-[(E)-hydroxyimino]-3-(2-methyl-pyridin-4-yl)-propyl]-N,N-dimethyl-benzamide] registered an EC50 of 51 nM. The same measure, in the same setting: then `Cc1cc(F)ccc1C(C/C(=N\O)c1ccc(=O)n(C)c1)c1ccc(-c2ccc(N)cc2)cc1` (centres unmarked) [Example 259, 5-{3-(4′-Amino-biphenyl-4-yl)-3-(4-fluoro-2-methyl-phenyl)-1-[(E)-hydroxyimino]-propyl}-1-methyl-1H-pyridin-2-one], with 50 nM; and `Cn1cc(/C(CC(c2ccc(-c3ccc(C(=O)O)cc3)cc2)c2ccccc2F)=N/O)ccc1=O` (centres unmarked) [Example 244, (E)-4′-(1-(2-Fluorophenyl)-3-(hydroxyimino)-3-(1-methyl-6-oxo-1,6-dihydropyridin-3-yl)propyl)biphenyl-4-carboxylic acid], with 260 nM. Regarding `CCOC(=O)C(C(=O)OCC)c1ccc([C@H](C/C(=N\O)c2ccnc(C)c2)c2ccccc2C)cc1` [Example 286, 2-{4-[(S)-3-[(E)-Hydroxyimino]-3-(2-methyl-pyridin-4-yl)-1-o-tolyl-propyl]-phenyl}-malonic acid diethyl ester], the response was half-maximal at 2410 nM (EC50). Still for that read-out and setting: under `Cc1ccccc1C(C/C(=N/O)c1ccncc1)c1ccc(-c2cncnc2)cc1` (single isomer, unassigned; (+)) [Example 38, (+)-(Z)-1-pyridin-4-yl-3-(4-pyrimidin-5-yl-phenyl)-3-o-tolyl-propan-1-one oxime] stands 7650 nM; under `Cc1cc(/C(CC(c2ccc(C(F)(F)F)cc2)c2ccc(F)cc2F)=N/O)ccn1` (centres unmarked) [Example 442, 3-(2,4-Difluoro-phenyl)-1-(2-methyl-pyridin-4-yl)-3-(4-trifluoromethyl-phenyl)-propan-1-one oxime], 109 nM. Same read-out and setting: under `Cc1cc(/C(CC(c2ccc(/C=C/C(=O)O)cc2)c2ccccc2C)=N\O)ccn1` (racemic) [Example 87, 3-{4-[3-[Hydroxyimino]-3-(2-methyl-pyridin-4-yl)-1-o-tolyl-propyl]-phenyl}-acrylic acid] stands 241 nM; under `CCC(CC(=NO)c1ccncc1)c1cccc(Br)c1` (racemic) [Example 13, 3-(3-Bromo-phenyl)-1-pyridin-4-yl-pentan-1-one oxime], 173 nM; under `Cc1cc(Cl)ccc1C(C/C(=N\O)c1ccc(=O)n(C)c1)c1ccc(NS(=O)(=O)C2CC2)cc1` (centres unmarked) [Example 354, Cyclopropanesulfonic acid {4-[1-(4-chloro-2-methyl-phenyl)-3-[(E)-hydroxyimino]-3-(1-methyl-6-oxo-1,6-dihydro-pyridin-3-yl)-propyl]-phenyl}-amide], 489 nM. For `Cn1cc(C(CC(c2ccc(C(=O)NCCO)c(F)c2)c2ccccc2Cl)=NO)ccc1=O` (mixture of isomers) [Example 216, (E/Z)-4-(1-(2-Chlorophenyl)-3-(hydroxyimino)-3-(1-methyl-6-oxo-1,6-dihydropyridin-3-yl)propyl)-2-fluoro-N-(2-hydroxyethyl)benzamide], the half-maximal effective concentration (EC50) is 255 nM. On the same count and under the same terms, then `CCOC(=O)c1cccc(-c2ccc(C(CC(=NO)c3ccnc(C)c3)c3ccccc3C)cc2)c1` (racemic) [Example 78, 4′-[3-[Hydroxyimino]-3-(2-methyl-pyridin-4-yl)-1-o-tolyl-propyl]-biphenyl-3-carboxylic acid ethyl ester], with 381 nM; and `Cc1cc(Cl)ccc1C(C/C(=N\O)c1ccc(=O)n(C)c1)c1ccc(Oc2cccc(C(=O)O)c2)cc1` (centres unmarked) [Example 346, 3-{4-[1-(4-Chloro-2-methyl-phenyl)-3-[(E)-hydroxyimino]-3-(1-methyl-6-oxo-1,6-dihydro-pyridin-3-yl)-propyl]-phenoxy}-benzoic acid], with 42 nM; and `Cc1cc(Cl)ccc1[C@H](C/C(Cc1ccccn1)=N\O)c1ccc(Br)cc1` [Example 362, (E,R)-4-(4-bromo-phenyl)-4-(4-chloro-2-methyl-phenyl)-1-pyridin-2-yl-butan-2-one oxime], with 2000 nM. The same measure, in the same setting: then `Cc1cc(C)cc(C(CC(=NO)c2ccncc2)c2ccc(N(C)C)cc2)c1` (racemic) [Example 18, 3-(4-Dimethylamino-phenyl)-3-(3,5-dimethyl-phenyl)-1-pyridin-4-yl-propan-1-one oxime], with 661 nM. Regarding `Cc1cc(/C(C[C@H](c2ccc(-c3nnc(C)o3)cc2)c2ccccc2C)=N/O)ccn1` [Example 417, ((−), E)-3-[4-(5-Methyl-[1,3,4]oxadiazol-2-yl)-phenyl]-1-(2-methyl-pyridin-4-yl)-3-o-tolyl-propan-1-one oxime], the EC50 came to 8 nM. The same measure, in the same setting: under `Cn1cc(/C(CC(c2ccc(C(=O)NC3CC3)c(F)c2)c2ccccc2Cl)=N/O)ccc1=O` (centres unmarked) [Example 233, (E)-4-(1-(2-Chlorophenyl)-3-(hydroxyimino)-3-(1-methyl-6-oxo-1,6-dihydropyridin-3-yl)propyl)-N-cyclopropyl-2-fluorobenzamide] stands 186 nM; under `Cn1cc(/C(CC(c2ccc(C(=O)NC3CCOCC3)c(F)c2)c2ccccc2Cl)=N/O)ccc1=O` (centres unmarked) [Example 219, (E)-4-(1-(2-Chlorophenyl)-3-(hydroxyimino)-3-(1-methyl-6-oxo-1,6-dihydropyridin-3-yl)propyl)-2-fluoro-N-(tetrahydro-2H-pyran-4-yl)benzamide], 1160 nM; under `Cn1cc(/C(CC(c2ccc(Br)cc2)c2ccc(F)cc2S(C)(=O)=O)=N/O)ccc1=O` (centres unmarked) [Example 409, (E)-5-{3-(4-Bromo-phenyl)-3-(4-fluoro-2-methanesulfonyl-phenyl)-1-(hydroxyimino)-propyl}-1-methyl-1H-pyridin-2-one], 210 nM. On the same count and under the same terms, then `Cc1cc(F)ccc1C(C/C(=N\O)c1ccc(=O)n(C)c1)c1ccc(-c2ccc(C(=O)NCC(=O)O)cc2)cc1` (centres unmarked) [Example 258, ({4′-[1-(4-Fluoro-2-methyl-phenyl)-3-[(E)-hydroxyimino]-3-(1-methyl-6-oxo-1,6-dihydro-pyridin-3-yl)-propyl]-biphenyl-4-carbonyl}-amino)-acetic acid], with 10 nM; and `Cc1ccccc1C(C/C(=N\O)c1ccncc1)c1ccc(-c2cncnc2)cc1` (single isomer, unassigned; (+)) [Example 35, (+)-(E)-1-Pyridin-4-yl-3-(4-pyrimidin-5-yl-phenyl)-3-o-tolyl-propan-1-one oxime], with 67 nM; and `Cc1ccccc1C(C/C(=N\O)c1ccc(=O)n(C)c1)c1ccc(C(=O)O)cc1` (centres unmarked) [Example 360, 4-[3-[(E)-Hydroxyimino]-3-(1-methyl-6-oxo-1,6-dihydro-pyridin-3-yl)-1-o-tolyl-propyl]-benzoic acid], with 4760 nM. The same measure, in the same setting: under `Cc1cc(F)ccc1C(C/C(=N\O)c1ccc(=O)n(C)c1)c1ccc(-c2ccc(NC(=O)CCC(=O)O)cc2)cc1` (centres unmarked) [Example 392, N-{4′-[1-(4-Fluoro-2-methyl-phenyl)-3-[(E)-hydroxyimino]-3-(1-methyl-6-oxo-1,6-dihydro-pyridin-3-yl)-propyl]-biphenyl-4-yl}-succinamic acid] stands 54 nM. Take `Cc1cc(/C(CC(c2ccc(N3CCOCC3)nc2)c2ccc(F)cc2F)=N/O)ccn1` (centres unmarked) [Example 443, 3-(2,4-Difluoro-phenyl)-1-(2-methyl-pyridin-4-yl)-3-(6-morpholin-4-yl-pyridin-3-yl)-propan-1-one oxime]: the EC50 came out at 98 nM. Still for that read-out and setting: under `Cc1cc(/C(C[C@@H](c2ccc(N3CCC(CC(=O)O)CC3)cc2)c2ccc(F)cc2F)=N/O)ccn1` (single isomer, unassigned) [Example 430, (1-{4-[(+)-1-(2,4-Difluoro-phenyl)-3-[(E)-hydroxyimino]-3-(2-methyl-pyridin-4-yl)-propyl]-phenyl}-piperidin-4-yl)-acetic acid] stands 21 nM.

Values taken from patent US8765730B2 (Hoffmann-La Roche Inc, priority 2010, dated 2014).
